Measurements taken from paper PMC6804295, “Design, Synthesis, and Biological Evaluation of Novel Thienopyrimidine Derivatives as PI3Kα Inhibitors” (Molecules, 2019).

Assays:
HepG2 (human hepatoma) = test: MTT cytotoxicity assay, HepG2 cells; format: cell-based; settings: >50 = no inhibitory effect at 50 μM
Description: (§1) The cancer cell lines were cultured in minimum essential medium (MEM) supplement with 10% fetal bovine serum (FBS). Approximately, 4 × 10 ^3 cells, suspended in MEM medium, were plated onto each well of a 96-well plate and incubated in 5% CO2 at 37 °C for 24 h. The test compounds at the indicated final concentrations were added to the culture medium, and cell cultures continued for 72 h. Fresh MTT was added to each well at a terminal concentration of 5 µg/mL and incubated with cells at 37 °C for 4 h. The formazan crystals were dissolved in 100 µL of DMSO in each well, and the absorbency at 492 nm (for absorbance of MTT formazan) and 630 nm (for the reference wavelength) was measured with an enzyme linked immunosorbent assay (ELISA) reader (MR-96A Mindray Elisa Microplate Reader, Guangzhou, China). All compounds were tested three times in each of the cell lines. The results expressed as inhibition rates or IC50 was the averages of […] and calculated using the Bacus Laboratories Inc. Slide Scanner (Bliss) software (the Bacus Laboratories Inc. Slide Scanner (BLISS) system, Lombard, IL, USA).

[1] = test system: PC-3 (human prostate cancer); test: MTT cytotoxicity assay, PC-3 cells; format: cell-based; settings: >50 = no inhibitory effect at 50 μM
Description: as §1

[2] = test system: MCF-7 (human breast cancer); test: MTT cytotoxicity assay, MCF-7 cells; format: cell-based; settings: >50 = no inhibitory effect at 50 μM
Description: as §1

A549 (human lung cancer) = test: MTT cytotoxicity assay, A549 cells; format: cell-based; settings: 72 h, >50 = no inhibitory effect at 50 μM
Description: as §1

mTOR = mTOR (Homo sapiens, UniProt P42345); test: mTOR Kinase-Glo Luminescent Kinase Assay; format: biochemical; settings: 10 µM ATP, 60 min
PI3Kα = PI3Kα (Homo sapiens, UniProt P42336); test: PI3Kα Kinase-Glo Luminescent Kinase Assay; format: biochemical; settings: 1 µM ATP, 60 min
Sequence of PI3Kα (P42336 whole entry): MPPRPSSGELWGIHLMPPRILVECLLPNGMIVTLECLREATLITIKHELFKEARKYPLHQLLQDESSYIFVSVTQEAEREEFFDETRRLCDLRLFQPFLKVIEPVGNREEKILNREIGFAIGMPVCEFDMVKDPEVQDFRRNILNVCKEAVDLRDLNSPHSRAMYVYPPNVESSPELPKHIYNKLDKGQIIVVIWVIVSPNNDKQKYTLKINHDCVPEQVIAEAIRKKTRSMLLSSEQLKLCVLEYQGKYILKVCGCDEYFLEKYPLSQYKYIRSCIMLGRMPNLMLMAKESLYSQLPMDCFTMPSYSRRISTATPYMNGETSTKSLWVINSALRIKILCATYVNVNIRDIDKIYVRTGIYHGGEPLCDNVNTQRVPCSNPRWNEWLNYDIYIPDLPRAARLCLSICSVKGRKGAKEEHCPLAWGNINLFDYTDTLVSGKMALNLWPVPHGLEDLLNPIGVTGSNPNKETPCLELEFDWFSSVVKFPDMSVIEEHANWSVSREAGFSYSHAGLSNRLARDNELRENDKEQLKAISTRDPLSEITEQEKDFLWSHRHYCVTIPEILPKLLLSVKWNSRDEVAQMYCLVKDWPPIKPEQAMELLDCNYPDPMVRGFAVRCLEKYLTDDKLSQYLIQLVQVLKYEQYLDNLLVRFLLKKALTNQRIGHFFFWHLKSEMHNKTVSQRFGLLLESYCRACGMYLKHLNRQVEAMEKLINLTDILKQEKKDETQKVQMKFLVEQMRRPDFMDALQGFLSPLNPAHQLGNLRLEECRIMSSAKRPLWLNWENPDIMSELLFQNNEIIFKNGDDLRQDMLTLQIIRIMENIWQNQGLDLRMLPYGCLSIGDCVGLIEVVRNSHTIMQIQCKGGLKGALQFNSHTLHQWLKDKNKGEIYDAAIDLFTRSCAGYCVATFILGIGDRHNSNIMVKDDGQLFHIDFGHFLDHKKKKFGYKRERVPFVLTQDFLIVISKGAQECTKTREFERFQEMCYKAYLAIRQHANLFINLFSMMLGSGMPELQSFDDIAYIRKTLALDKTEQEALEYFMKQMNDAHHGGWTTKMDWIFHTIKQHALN
Sequence of PI3Kα (P27986 whole entry partner): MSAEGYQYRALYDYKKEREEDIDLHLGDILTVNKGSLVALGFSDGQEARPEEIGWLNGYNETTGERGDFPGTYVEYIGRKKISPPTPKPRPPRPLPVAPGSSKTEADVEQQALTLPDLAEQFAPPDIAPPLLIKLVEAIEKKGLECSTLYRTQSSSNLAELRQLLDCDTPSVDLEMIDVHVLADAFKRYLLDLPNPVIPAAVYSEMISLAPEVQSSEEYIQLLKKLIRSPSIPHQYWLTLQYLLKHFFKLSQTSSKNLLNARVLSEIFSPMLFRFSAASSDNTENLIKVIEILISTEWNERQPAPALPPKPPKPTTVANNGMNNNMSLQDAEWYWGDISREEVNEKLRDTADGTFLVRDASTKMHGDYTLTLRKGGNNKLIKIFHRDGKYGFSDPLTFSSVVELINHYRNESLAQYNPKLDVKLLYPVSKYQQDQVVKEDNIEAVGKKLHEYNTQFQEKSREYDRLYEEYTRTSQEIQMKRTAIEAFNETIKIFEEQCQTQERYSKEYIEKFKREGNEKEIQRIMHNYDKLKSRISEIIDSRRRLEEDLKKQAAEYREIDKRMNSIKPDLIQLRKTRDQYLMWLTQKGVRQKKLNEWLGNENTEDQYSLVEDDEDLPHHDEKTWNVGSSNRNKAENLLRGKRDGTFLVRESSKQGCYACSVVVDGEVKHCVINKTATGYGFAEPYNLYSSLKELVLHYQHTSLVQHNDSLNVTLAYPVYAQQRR

melting point [°C] | IC50 (mTOR) [µM] | IC50 (PI3Kα) [µM] | SMILES | IC50 (HepG2 (human hepatoma); Homo sapiens, HepG2, 72 h) [µM] | IC50 ([1]; Homo sapiens, PC-3, 72 h) [µM] | IC50 ([2]; Homo sapiens, MCF7, 72 h) [µM] | IC50 (A549 (human lung cancer)) [µM] | IC50 (HepG2 (human hepatoma); 72 h) [µM] | IC50 ([1]; 72 h) [µM] | IC50 ([2]; 72 h) [µM]
272 to 273 | – | – | Fc1ccc(C2CC(c3ccc(Br)cc3)=NN2c2nc(N3CCOCC3)c3c4c(sc3n2)CCCC4)cc1 (stereo not shown) [Compound 21e, 4-(2-(3-(4-bromophenyl)-5-(4-fluorophenyl)-4,5-dihydro-1H-pyrazol-1-yl)-5,6,7,8-tetrahydrobenzo[4,5]thieno[2,3-d]pyrimidin-4-yl)morpholine] | 38.7 ± 1.72 | > 50 | > 50 | > 50 | – | – | –
252 to 253 | – | – | COc1ccc(C2CC(c3ccc(Cl)c(Cl)c3)=NN2c2nc(N3CCOCC3)c3c4c(sc3n2)CCCC4)cc1 (stereo not shown) [Compound 21a, 4-(2-(3-(3,4-dichlorophenyl)-5-(4-methoxyphenyl)-4,5-dihydro-1H-pyrazol-1-yl)-5,6,7,8-tetrahydrobenzo[4,5]thieno[2,3-d]pyrimidin-4-yl)morpholine] | 32.4 ± 1.84 | 31.8 ± 0.95 | – | 27.68 ± 0.1 | – | – | –
293 to 294 | – | – | Clc1ccc(C2=NN(c3nc(N4CCOCC4)c4c5c(sc4n3)CCCC5)C(c3ccccc3)C2)cc1Cl (stereo not shown) [Compound 21h, 4-(2-(3-(3,4-dichlorophenyl)-5-phenyl-4,5-dihydro-1H-pyrazol-1-yl)-5,6,7,8-tetrahydrobenzo[4,5]thieno[2,3-d]pyrimidin-4-yl)morpholine] | > 50 | > 50 | > 50 | 23.5 ± 0.82 | – | – | –
189 to 193 | – | – | COc1ccc(C2CC(c3ccc(F)cc3)=NN2c2nc(N3CCOCC3)c3c4c(sc3n2)CCCC4)cc1 (stereo not shown) [Compound 21d, 4-(2-(3-(4-fluorophenyl)-5-(4-methoxyphenyl)-4,5-dihydro-1H-pyrazol-1-yl)-5,6,7,8-tetrahydrobenzo[4,5]thieno[2,3-d]pyrimidin-4-yl)morpholine] | 23.7 ± 0.11 | 25.3 ± 0.75 | 29.5 ± 1.87 | 17.8 ± 1.1 | – | – | –
212 to 213 | – | – | c1ccc(C2=NN(c3nc(N4CCOCC4)c4c5c(sc4n3)CCCC5)C(c3ccccc3)C2)cc1 (stereo not shown) [Compound 21c, 4-(2-(3,5-diphenyl-4,5-dihydro-1H-pyrazol-1-yl)-5,6,7,8-tetrahydrobenzo[4,5]thiophene[2,3-d]pyramidin-4-yl)morpholine] | > 50 | > 50 | > 50 | 42 ± 1.49 | – | – | –
231 to 234 | – | – | Clc1ccc(C2=NN(c3nc(N4CCOCC4)c4c5c(sc4n3)CCCC5)C(c3ccc(Br)cc3)C2)cc1Cl (stereo not shown) [Compound 21g, 4-(2-(5-(4-bromophenyl)-3-(3,4-dichlorophenyl)-4,5-dihydro-1H-pyrazol-1-yl)-5,6,7,8-tetrahydrobenzo[4,5]thieno[2,3-d]pyrimidin-4-yl)morpholine] | > 50 | > 50 | > 50 | > 50 | – | – | –
257 to 259 | – | – | Brc1ccc(C2=NN(c3nc(N4CCOCC4)c4c5c(sc4n3)CCCC5)C(c3ccccc3)C2)cc1 (stereo not shown) [Compound 21f, 4-(2-(3-(4-bromophenyl)-5-phenyl-4,5-dihydro-1H-pyrazol-1-yl)-5,6,7,8-tetrahydrobenzo[4,5]thieno[2,3-d]pyrimidin-4-yl)morpholine] | > 50 | > 50 | > 50 | > 50 | – | – | –
243 to 244 | – | – | Cc1ccc(C2CC(c3ccc(Br)cc3)=NN2c2nc(N3CCOCC3)c3c4c(sc3n2)CCCC4)cc1 (stereo not shown) [Compound 21b, 4-(2-(3-(4-bromophenyl)-5-(p-tolyl)-4,5-dihydro-1H-pyrazol-1-yl)-5,6,7,8-tetrahdrobenzo[4,5]thieno[2,3-d]pyrimidin-4-yl)morpholine] | 12.4 ± 0.96 | 20.6 ± 0.63 | 15.3 ± 0.83 | 11.59 ± 0.11 | – | – | –

The remaining lines, values behind:

SMILES | melting point [°C] | IC50 (mTOR) [µM] | IC50 (PI3Kα) [µM] | IC50 (HepG2 (human hepatoma); Homo sapiens, HepG2, 72 h) [µM] | IC50 ([1]; Homo sapiens, PC-3, 72 h) [µM] | IC50 ([2]; Homo sapiens, MCF7, 72 h) [µM] | IC50 (A549 (human lung cancer)) [µM] | IC50 (HepG2 (human hepatoma); 72 h) [µM] | IC50 ([1]; 72 h) [µM] | IC50 ([2]; 72 h) [µM]
CS(=O)(=O)N1CCN(Cc2cc3nc(-c4cccc5[nH]ncc45)nc(N4CCOCC4)c3s2)CC1 [GDC-0941, reference compound] | – | – | – | 0.07 ± 0.03 | 4.35 ± 0.33 | 0.2 ± 0.08 | 6.99 ± 0.21 | – | – | –
Fc1ccc(C2=NN(c3nc(N4CCOCC4)c4ccsc4n3)C(c3ccc(F)cc3)C2)cc1 (stereo not shown) [Compound 9c, 4-(2-(3,5-bis(4-fluorophenyl)-4,5-dihydro-1H-pyrazol-1-yl)thieno[2,3-d]pyrimidin-4-yl)Morpholine] | 225 to 227 | – | – | 17.4 ± 0.98 | 18.2 ± 1.55 | 22.37 ± 0.17 | 24.23 ± 0.15 | – | – | –
c1ccc(C2=NN(c3nc(N4CCOCC4)c4ccsc4n3)[C@@H](c3ccccc3)C2)cc1 (stereo in doubt) [Compound 9a] | 202 to 205 | 39.9 ± 7.6 | 9.47 ± 0.63 | 12.3 ± 0.96 | 14.7 ± 1.32 | 9.8 ± 0.93 | 11.3 ± 1.19 | 9.8 ± 0.93 | 12.3 ± 0.96 | 14.7 ± 1.32
Fc1ccc(C2=NN(c3nc(N4CCOCC4)c4sccc4n3)C(c3ccc(F)cc3)C2)cc1 (stereo not shown) [Compound 15c, 4-(2-(3,5-bis(4-fluorophenyl)-4,5-dihydro-1H-pyrazol-1-yl)thieno[3,2-d]pyrimidin-4-yl)Morpholine] | 254.7 to 255.4 | – | – | 18.9 ± 1.86 | 25.3 ± 2.39 | 37.1 ± 2.99 | 39 ± 3.32 | – | – | –
c1ccc(C2=NN(c3nc(N4CCOCC4)c4sccc4n3)[C@@H](c3ccccc3)C2)cc1 (stereo in doubt) [Compound 15a] | 131.2 to 132.5 | > 50 | 25.7 ± 2.33 | 13.1 ± 1.48 | 15.5 ± 1.21 | 17 ± 1.68 | 16.9 ± 1.61 | – | – | –
